The numbers were not newly measured in US5929038A, “Pharmaceutical preparations which inhibit hepatitis B virus (HBV) replication” (Choongwae Pharmaceutical Co., Ltd., priority 1992, dated 1999), which cites them from elsewhere.

The subject of series [1] is beagle dogs intoxicated by toxic mushroom extracts. The following applies: cited from earlier work.
In series [2] the test system is toxic Amanita mushrooms' poisoning. The following applies: in vivo; cited from earlier work.

Molecules are shown by their SMILES.

On to `OCC1=CC(O)C2C=COC(O[C@@H]3O[C@H](CO)[C@@H](O)[C@H](O)[C@H]3O)C12` (stereo partly drawn) [Aucubin, 1,4,5, 7α-tetrahydro-5-hydroxy-17-(hydroxymethyl)cyclopenta[c]pyran-1-yl-β-D-glucopyranose], for which, in series [1], the antidotal activity result is reported as “potent antidotal activity”. Further, the Detoxification activity entry in series [2] was “detoxifies toxic Amanita mushrooms' poisoning”.
